Measured values reported in paper PMC9778238, “How Discoloration of Porcine Cruor Hydrolysate Allowed the Identification of New Antifungal Peptides” (Foods, 2022).
Ends that are not written are not given here.

Test system: Paecilomyces spp.
Assay: not given
Assay type: cell-based
Conditions: 48 h
Experimental: (§1) The peptide synthesis was performed by Laboratoire Innodal (Lévis, QC, Canada). Fourteen peptides were synthesized by standard solid-phase peptide synthesis (SPPS) on an automated peptide synthesizer. Solubility of peptides was first tested on saline water with 0.85% NaCl. […] Each peptide was solubilized in a small volume of dimethylsulfoxide (DMSO), and water was subsequently added until a 10% (v/v) DMSO concentration was reached. The stock solution of each peptide was at a concentration of 2.5 mM. The pH of the final solution was below the isoelectric point of each peptide. […] Antifungal assays on synthesized peptides were realized using methods described below.
(§2) The antibacterial activity was tested against two indicator bacteria including Escherichia coli and Listeria ivanovii (Table 1). These two strains are Gram-negative and Gram-positive, respectively and are commonly sensitive strains. They were subcultured in Tryptic Soy Broth (TSB) two times for 18 h, at 37 °C for E. coli and 30 °C for L. ivanovii. The antifungal activity was evaluated against four filamentous molds and four yeasts (Table 1). All the strains for antifungal assays were chosen since they are the most often strains identified as spoilage microorganisms of food products, specifically in the meat industry. The 4 filamentous molds were subcultured on Potato Dextrose Agar (PDA) at 25 °C, for 7 days, 2 times. The 4 yeasts were subcultured in Potato Dextrose Broth (PDB) at 25 °C, for 48 h, 2 to 3 times (Table 1).
(§3) The minimum inhibitory concentration (MIC) of the hydrolysate that induces inhibition of the microorganism tested was determined according to Froidevaux et al.. To quantify the growth inhibition, 96-well microplate assays were performed using Mueller-Hinton broth (MH, BD-Difco, Sparks, MD, USA). Samples were micro-diluted from the stock concentration of 40 mg/mL of proteins. The inoculum was pre-diluted in MH at a concentration of 5 × 10^5 CFU/mL. Then, the microplate was incubated 24 h at 37 °C for E. coli and at 30 °C for L. ivanovii. The molds and yeasts strains were, respectively tested at 2 × 10^4 and 1 × 10^5 conidia or yeast per mL [32]. The automated cell counter was used to determine the concentration. The microplates were incubated for 48 h at 25 °C for the molds and R. mucilaginosa, and at 35 °C for the other yeast strains. The MIC was the lowest concentration that inhibited completely the microorganism growth. The growth was measured by absorbance at 595 nm (Infinite® F200 PRO, Tecan Inc., Durham, NC, USA).
(§4) Then, they were, respectively incubated for 24 h at 37 °C or 30 °C and 48 h at 25 °C. The lowest concentration that inhibited microorganism growth is the MBC or MFC.

Going from FRLLGNVIVVV to NALAHKYH, the MFC falls from 600 ± 0 µM to 300 ± 0 µM (2-fold).

GHLDDLPGALSALSDLHAHKL and LAHKYH [LAHKYH] are within error of each other in MFC: 1700 ± 700 µM for the first, 1300 ± 0 µM for the second.

First: FRLLGNVIVVV
Second: NALAHKYH
The MIC of the first is 3.1-fold higher: 625 µM for the first, 200 ± 0 µM for the second.

GHLDDLPGALSALSDLHAHKL and LAHKYH [LAHKYH] are within 1.5-fold of each other in MIC: 1300 ± 0 µM for the first, 1250 µM for the second.

HVDPENFRLLGNVIVVVL showed an MIC of over 1300 ± 0 µM.

Same assay, conditions: synthesized peptides, stock 2.5 mM in 10% (v/v) DMSO, highest tested concentration 1.25 mM, 48 h at 25 °C, mean ± SD

In the case of HVDPEN, the MIC was “not active”.

Test system: not listed separately
Assay: RP-UPLC-MS/MS peptide profile, retention time
Assay type: physicochemical
Conditions: Poroshell 120 EC-C18, water/acetonitrile with 0.1% formic acid, B 1–13% in 6 min, 35% at 25 min, 100% at 35 min, 23 °C, 500 µL/min, early elution read as high polarity, late as higher hydrophobicity
Source text: RP-UPLC coupled with MS/MS Q-TOF system was used to separate, identify, and characterize the peptide population, present in the porcine cruor hydrolysates. RP-UPLC tests were operated using a 1290 Infinity II UPLC (Agilent Technologies, Santa Clara, CA, USA), following the method proposed by. This chromatography instrument was composed of a binary pump (G7120A), a multisampler (G7167B), an in-line degasser and a variable wavelength detector (VWD G7114B) adjusted to 214 nm. […] Then, solvent B ramped to 100% until 35 min and was maintained for 10 min before returning to initial conditions. The cruor hydrolysate samples (2% protein (w/v)) were filtered through 0.22 µm PVDF filter and a volume of 0.25 µL was loaded onto a Poroshell 120 EC-C18 column (2.1 × 100 mm i.d., 2.7 micron, Agilent, Santa Clara, CA, USA) at a flow rate of 500 µL/min.
The determination of the accurate mass was performed using a hybrid ion mobility quadrupole time of flight mass spectrometer (6560 high-definition mass spectrometry (IM-Q-TOF), Agilent, Santa Clara, CA, USA). Calibration was completed using an ESI-L low concentration tuning mix (G1969-85000, Agilent Technologies, Santa Clara, CA, USA). Nitrogen was selected as the drying (13.0 L/min, 150 °C) and nebulizer gas (30 psi). The voltages were set at 3500 V for the capillary, 300 V for the nozzle and 400 V for the fragmentor. Positive mode at Extended Dynamic Range, 2 Ghz, 3200 m/z was used to record signals. Data acquisition and analysis were performed using the Agilent Mass Hunter Software package (LC/MS Data Acquisition, Version B.08.00 and Qualitative Analysis for IM-MS, Version B.07.00 Service Pack 2 with BioConfirm Software and BioConfirm, Version 10.0). A false discovery rate of 1% was used for extraction of biomolecules. […] Finally, these peptides were compared with bioactive peptides already known in the literature or analyzed with a predictive antimicrobial database.

“GLWGKVNVDEVGGEALGRL [porcine hemoglobin fragment β 14–32]” and “ERMFLGF [porcine hemoglobin fragment α 30–36]” are within 1.5-fold of each other in “Retention Time” value: 16.84 min for the first, 16.27 min for the second.

“SDLHAHKLRVDPVNF [porcine hemoglobin fragment α 84–98]” and “VLSAADKANVKAAWGKVGGQAGAHGAEAL [porcine hemoglobin fragment α 1–29]” are within 1.5-fold of each other in “Retention Time” value: 9.34 min for the first, 10.86 min for the second.

Going from “LERMFLGF [porcine hemoglobin fragment α 29–36]” to “TSKYR [known antimicrobial peptide, porcine hemoglobin fragment α 137–141]”, the “Retention Time” value falls from 17.60 min to 1.64 min (11-fold).

“DQLHVDPENFRLLGNVIVVVLARRLGHDFNPNVQ [porcine hemoglobin fragment β 95–128]” and “HVDPENFRLLGNVIVVVLARRLGHDFNPNVQ [porcine hemoglobin fragment β 98–128, synthesized]” are within 1.5-fold of each other in “Retention Time” value: 24.79 min for the first, 23.26 min for the second.

“FESFGDLSNAD [porcine hemoglobin fragment β 43–53]” and “LSDLHAHKLRVDPVNF [porcine hemoglobin fragment α 83–98]” are within 1.5-fold of each other in “Retention Time” value: 12.20 min for the first, 10.23 min for the second.

Going from “VLSAADKANVKAAWGKVGGQAGAHGAEALERM [porcine hemoglobin fragment α 1–32]” to “FRLLGNVIVVVLARRLGHDFNPNVQ [porcine hemoglobin fragment β 104–128]”, the “Retention Time” value rises from 12.14 min to 21.87 min (1.8-fold).

First: STVLTSKYR [porcine hemoglobin fragment α 133–141]
Second: AAFQKVVAGVANA [porcine hemoglobin fragment β 129–141]
The “Retention Time” value of the first is 1.6-fold lower: 6.67 min for the first, 10.86 min for the second.

Compared with “ERMFLGFPTTKTYFPHF [porcine hemoglobin fragment α 30–46]”, “GAEALERMFLGFPT [porcine hemoglobin fragment α 25–38]” is 1.8-fold lower in “Retention Time” value: 18.24 min for the first, 9.91 min for the second.

“FESF [porcine hemoglobin fragment β 43–46]” and “DPENFRLLGNVIVVVLA [porcine hemoglobin fragment β 100–116]” are within 1.5-fold of each other in “Retention Time” value: 9.60 min for the first, 11.10 min for the second.

“HVDPENFRLLGNVIV [porcine hemoglobin fragment β 98–112]” and “PTTKTYFPHF [porcine hemoglobin fragment α 37–46]” are within 1.5-fold of each other in “Retention Time” value: 17.16 min for the first, 12.01 min for the second.

Compared with “FLGFPTTKTYFPHF [porcine hemoglobin fragment α 33–46]”, “ANVSTVLTSKYR [porcine hemoglobin fragment α 130–141]” is 2.3-fold lower in “Retention Time” value: 19.13 min for the first, 8.45 min for the second.

First: VLSAADKANVKAAWGKVGGQAGAHGAEA [porcine hemoglobin fragment α 1–28]
Second: NLSHGSDQVKAHGQKVADALTKAVGHLDDLPGAL [porcine hemoglobin fragment α 47–80]
The “Retention Time” value of the first is 1.7-fold lower: 9.15 min for the first, 15.89 min for the second.

“LVVYPWTQRF [porcine hemoglobin fragment β 33–42]” and “HVDPENFRLLGNVIVVVLARRLGHDFNPNVQA [porcine hemoglobin fragment β 98–129, synthesized]” are within 1.5-fold of each other in “Retention Time” value: 16.65 min for the first, 23.33 min for the second.

“TVLTSKYR [porcine hemoglobin fragment α 134–141]” and “VLTSKYR [porcine hemoglobin fragment α 135–141]” are within 1.5-fold of each other in “Retention Time” value: 6.54 min for the first, 5.97 min for the second.

“KLLSHCLL [porcine hemoglobin fragment α 99–106]” and “SNADAVMGNPKVKAH [porcine hemoglobin fragment β 50–64]” are within 1.5-fold of each other in “Retention Time” value: 10.93 min for the first, 9.91 min for the second.

“PNVQAAFQKVVAGVANALA [porcine hemoglobin fragment β 125–143]” and “KLLSHCLLVTLAAHHPD [porcine hemoglobin fragment α 99–115]” are the same in “Retention Time” value: 11.10 min for the first, 11.10 min for the second.

“LANVSTVLTSKYR [porcine hemoglobin fragment α 129–141]” and “KLLSHCL [porcine hemoglobin fragment α 99–105]” are within 1.5-fold of each other in “Retention Time” value: 10.36 min for the first, 8.01 min for the second.

“CLLVTLAAHHPDDFNPS [porcine hemoglobin fragment α 104–120]” and “LLVVYPWTQRF [porcine hemoglobin fragment β 32–42]” are within 1.5-fold of each other in “Retention Time” value: 12.90 min for the first, 19.00 min for the second.

“SFSDGLKHLDNLKGTFA [porcine hemoglobin fragment β 71–87]” and “VTLAAHHPDDFNPSVHASLDKF [porcine hemoglobin fragment α 107–128]” are within 1.5-fold of each other in “Retention Time” value: 12.90 min for the first, 11.37 min for the second.

“SFGDLSNADAVMGNPKVK [porcine hemoglobin fragment β 45–62]” and “LGFPTTKTYFPHF [porcine hemoglobin fragment α 34–46]” are within 1.5-fold of each other in “Retention Time” value: 12.90 min for the first, 16.46 min for the second.

For “RMFLGFPTTKTYFPHF [porcine hemoglobin fragment α 31–46]”, the “Retention Time” value was 17.99 min.

Test system: R. mucilaginosa
Assay: not given
Assay type: cell-based, Rhodotorula mucilaginosa
Conditions: 48 h
Experimental: as §1, §2, §3, §4

FRLLGNVIVVV and HVDPENFRLLGNVIVVVL are the same in MFC: 300 ± 0 µM for the first, 300 ± 100 µM for the second.

Going from NALAHKYH to GHLDDLPGALSALSDLHAHKL, the MFC rises from 300 ± 0 µM to 600 ± 0 µM (2-fold).

LAHKYH [LAHKYH] gave an MFC of 1300 ± 0 µM.

Going from FRLLGNVIVVV to HVDPENFRLLGNVIVVVL, the MIC falls from 156 µM to 100 ± 50 µM (1.6-fold).

Going from NALAHKYH to GHLDDLPGALSALSDLHAHKL, the MIC rises from 300 ± 0 µM to 600 ± 0 µM (2-fold).

Substance LAHKYH [LAHKYH] has an MIC of 1250 µM.

Same assay, conditions: synthesized peptides, stock 2.5 mM in 10% (v/v) DMSO, highest tested concentration 1.25 mM, 48 h at 25 °C, mean ± SD

For HVDPEN, the MIC was “not active”.
